Results on 33 molecules are retold here after patent US7803825B2, “Aminoalkylazole derivatives as histamine-3 antagonists” (Wyeth LLC, priority 2007, dated 2010).

Where a name gives a salt, the structure may show the parent alone.

The target in the experiment is T1, histamine-3 (H3) receptor (Homo sapiens, UniProt Q9Y5N1).
T1 construct: expressed in transfected cells; host or cells: HEK293T
T1 sequence (Q9Y5N1 whole entry): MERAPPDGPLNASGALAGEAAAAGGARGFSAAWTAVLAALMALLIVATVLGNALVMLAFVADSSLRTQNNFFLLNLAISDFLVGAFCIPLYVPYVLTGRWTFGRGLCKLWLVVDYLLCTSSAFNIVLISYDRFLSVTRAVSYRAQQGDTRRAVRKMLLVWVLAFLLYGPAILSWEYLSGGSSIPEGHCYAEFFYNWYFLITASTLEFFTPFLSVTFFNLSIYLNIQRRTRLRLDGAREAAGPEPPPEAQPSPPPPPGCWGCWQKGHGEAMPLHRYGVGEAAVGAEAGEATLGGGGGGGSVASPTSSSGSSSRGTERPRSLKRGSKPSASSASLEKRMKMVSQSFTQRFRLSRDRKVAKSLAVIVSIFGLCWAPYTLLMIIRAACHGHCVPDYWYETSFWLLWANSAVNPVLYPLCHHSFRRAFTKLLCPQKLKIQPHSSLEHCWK
Description: Methyl Histamine Binding in Human Histamine-3 Receptor Cell Line. The following applies: membranes of stably transfected HEK293T cells, radioligand 1 nM, Ki from IC50 by Cheng-Prusoff. The procedure:
Evaluation of Methyl Histamine Binding in Human Histamine-3 Receptor Cell Line
The affinity of test compounds for the histamine-3 (H3) receptor is evaluated in the following manner. Stably transfected HEK293T cells are grown in DMEM containing 10% heat inactivated FBS and G-418 (500 ug/ml). Cells are scraped from the plate, transferred to centrifuge tubes, washed one time in PBS by centrifugation in a Sorvall RT7 Plus centrifuge (2000 rpm 10 minutes, 4° C.). The resulting pellets are stored at 80° C. until ready for use. Cells are re-suspended in buffer (50 mM Tris pH=7.5) and placed in a Dounce homogenizer, douncing ten times to homogenize cells. The homogenate is spun down by centrifugation (Sorvall RT7 Plus, 1800 rpm 10 minutes, 4° C.). The supernatant is placed in a Corex tube and spun down by centrifugation (Sorvall RC 5c Plus, 17,000 rpm 20 minutes, 4° C.). The pellet is resuspended in buffer (50 mM Tris, pH 7.5). Protein concentration (ug/ul) is determined using the Micro-BCA Protein Determination. The binding assay is set up in a 96 well microtiter plate in a total volume of 250 uL. Non-specific binding is determined in the presence of 10 uM clobenpropit. The final radioligand concentration is 1 nM. The test compound is serially diluted using the Beckman Biomek2000 to a final approximate range of 100 uM to 100 pM. Membranes are suspended in buffer, homogenized in 2 bursts of ten seconds using a Vitris mechanical homogenizer set at power setting 5. Ten μg of membranes are added to each well. Following a one hour incubation at 30° C., the reaction is terminated by the addition of ice cold buffer and rapid filtration with a Packard Filtermate Harvester through a GF/B filter pre-soaked with 1% PEI for one hour. The plate is dried for one hour at 37° C. and 60 μL Microscint Scintillant is added to each well. The CPM per well is measured on a Packard Top Count NXT. Ki values are determined in nM. The Ki is calculated from the IC50 (i.e. the concentration of competing ligand which displaces 50% of the specific binding of the radioligand). CPM values are expressed as % specific binding and plotted vs compound concentration. A curve is fitted using a four-parameter logistic fit and the IC50 value is determined. The Ki is calculated from this using the Cheng-Prusoff equation: […]=IC50/1+(L/Kd) where L=concentration of free radioligand used in the assay, and Kd is the dissociation constant of the radioligand for the receptor. L is determined for each experiment by counting an aliquot of the diluted radioligand (corresponding to that added to each well) and the Kd has previously been determined under identical conditions for this cell line/radioligand.
In general, Ki refers to the equilibrium dissociation constant of an inhibitor or competing ligand from its target. Regarding `c1ccc2c(c1)nc(-c1ccc(-c3nc(CN4CCCC4)co3)cc1)n2CCC1CCCCC1` [Example 60, 1-(2-cyclohexylethyl)-2-{4-[4-(pyrrolidin-1-ylmethyl)-1,3-oxazol-2-yl]phenyl}-1H-benzimidazole], the inhibition constant (Ki) was 50.1 to 100 nM.
In the case of `C[C@H]1CCCN1Cc1coc(-c2ccc(-c3nc4ccccc4n3CCC3CCCCC3)cc2)n1` [Example 61] it was 25.1 to 50 nM.
To `Cn1c(Cc2ccc(-c3nc(CN4CCCC4)co3)cc2)nc2ccccc21` [Example 67, 1-Methyl-2-{4-[4-(pyrrolidin-1-ylmethyl)-1,3-oxazol-2-yl]benzyl}-1H-benzimidazole Fumarate] belongs at most 10 nM; to `c1ccc2c(c1)ncn2Cc1ccc(-c2nc(CN3CCCC3)cs2)cc1` [Example 71, 1-{4-[4-(Pyrrolidin-1-ylmethyl)-1,3-thiazol-2-yl]benzyl}-1H-benzimidazole Hydrochloride], 10.1 to 25 nM; to `CC1CCCN1Cc1csc(-c2ccc(Cn3cnc4ccccc43)cc2)n1` (stereo not drawn) [Example 72, 1-(4-{4-[(2-methylpyrrolidin-1-yl)methyl]-1,3-thiazol-2-yl}benzyl)-1H-benzimidazole], at most 10 nM.
To `c1ccc2c(c1)ncn2Cc1ccc(-c2nc(CN3CCCCC3)cs2)cc1` [Example 73, 1-{4-[4-(piperidin-1-ylmethyl)-1,3-thiazol-2-yl]benzyl}-1H-benzimidazole] belongs at most 10 nM; to `c1ccc2c(c1)ncn2Cc1ccc(-c2nc(CN3CCCCCC3)cs2)cc1` [Example 74, 1-{4-[4-(azepan-1-ylmethyl)-1,3-thiazol-2-yl]benzyl}-1H-benzimidazole], at most 10 nM; to `c1ccc2c(c1)ccn2Cc1ccc(-c2nc(CN3CCCC3)co2)cc1` [Example 81, 1-{4-[4-(pyrrolidin-1-ylmethyl)-1,3-oxazol-2-yl]benzyl}-1H-indole Hydrochloride], 50.1 to 100 nM.
`c1ccc2c(c1)cnn2Cc1ccc(-c2nc(CN3CCCC3)co2)cc1` [Example 88, 1-{4-[4-(pyrrolidin-1-ylmethyl)-1,3-oxazol-2-yl]benzyl}-1H-indazole] showed an inhibition constant (Ki) of 50.1 to 100 nM.
To `C[C@@H]1CCCN1Cc1coc(-c2ccc(Cn3ncc4ccccc43)cc2)n1` [Example 94, 1-[4-(4-{[(2R)-2-methylpyrrolidin-1-yl]methyl}-1,3-oxazol-2-yl)benzyl]-1H-indazole] belongs 50.1 to 100 nM; to `C[C@@H]1CCCN1Cc1coc(-c2ccc(Cn3ncc4cc(F)ccc43)cc2)n1` [Example 95, 5-fluoro-1-[4-(4-{[(2R)-2-methylpyrrolidin-1-yl]methyl}-1,3-oxazol-2-yl)benzyl]-1H-indazole], 50.1 to 100 nM.
To `C[C@@H]1CCCN1Cc1coc(-c2ccc(Cn3ncc4ccc(F)cc43)cc2)n1` [Example 96, 6-fluoro-1-[4-(4-{[(2R)-2-methylpyrrolidin-1-yl]methyl}-1,3-oxazol-2-yl)benzyl]-1H-indazole] belongs 50.1 to 100 nM; to `C[C@H]1CCCN1Cc1coc(-c2ccc(Cn3ncc4ccccc43)cc2)n1` [Example 97, 1-[4-(4-{[(2S)-2-methylpyrrolidin-1-yl]methyl}-1,3-oxazol-2-yl)benzyl]-1H-indazole], at most 10 nM; to `C[C@H]1CCCN1Cc1coc(-c2ccc(Cn3ncc4cc(F)ccc43)cc2)n1` [Example 98, 5-fluoro-1-[4-(4-{[(2S)-2-methylpyrrolidin-1-yl]methyl}-1,3-oxazol-2-yl)benzyl]-1H-indazole], at most 10 nM.
`C[C@H]1CCCN1Cc1coc(-c2ccc(Cn3ncc4ccc(F)cc43)cc2)n1` [Example 99, 6-fluoro-1-[4-(4-{[(2S)-2-methylpyrrolidin-1-yl]methyl}-1,3-oxazol-2-yl)benzyl]-1H-indazole] displayed a Ki of 10.1 to 25 nM.
In the case of `Fc1ccc2c(cnn2Cc2ccc(-c3nc(CN4CCCC4)co3)cc2)c1` [Example 100, 5-fluoro-1-{4-[4-(pyrrolidin-1-ylmethyl)-1,3-oxazol-2-yl]benzyl}-1H-indazole] it was 10.1 to 25 nM.
`Fc1ccc2cnn(Cc3ccc(-c4nc(CN5CCCC5)co4)cc3)c2c1` [Example 101, 6-fluoro-1-{4-[4-(pyrrolidin-1-ylmethyl)-1,3-oxazol-2-yl]benzyl}-1H-indazole] registered a Ki of 25.1 to 50 nM.
To `NCc1ccc2c(cnn2Cc2ccc(-c3nc(CN4CCCC4)co3)cc2)c1` [Example 102, 1-(1-{4-[4-(pyrrolidin-1-ylmethyl)-1,3-oxazol-2-yl]benzyl}-1H-indazol-5-yl)methanamine] belongs at most 10 nM; to `c1ccc2c(c1)ncn2Cc1ccc(-c2ncc(CN3CCCC3)o2)cc1` [Example 104, 1-{4-[5-(pyrrolidin-1-ylmethyl)-1,3-oxazol-2-yl]benzyl}-1H-benzimidazole], above 100 nM; to `CC1CCCN1Cc1cnc(-c2ccc(Cn3cnc4ccccc43)cc2)o1` (stereo not drawn) [Example 105, 1-(4-{5-[(2-methylpyrrolidin-1-yl)methyl]-1,3-oxazol-2-yl}benzyl)-1H-benzimidazole], at most 10 nM.
`C[C@H]1CCCN1Cc1cnc(-c2ccc(Cn3cnc4ccccc43)cc2)o1` [Example 106, 1-[4-(5-{[(2S)-2-methylpyrrolidin-1-yl]methyl}-1,3-oxazol-2-yl)benzyl]-1H-benzimidazole]: the inhibition constant (Ki) is at most 10 nM.
Take `c1ccc2c(c1)ncn2Cc1ccc(-c2ncc(CN3CCCCC3)o2)cc1` [Example 107, 1-{4-[5-(piperidin-1-ylmethyl)-1,3-oxazol-2-yl]benzyl}-1H-benzimidazole]: the Ki is above 100 nM.
With `C[C@@H]1CCCN1Cc1cnc(-c2ccc(Cn3cnc4ccccc43)cc2)o1` [Example 108, 1-[4-(5-{[(2R)-2-methylpyrrolidin-1-yl]methyl}-1,3-oxazol-2-yl)benzyl]-1H-benzimidazole], the Ki is 25.1 to 50 nM.
As to `CC1CCCN(Cc2cnc(-c3ccc(Cn4cnc5ccccc54)cc3)o2)C1` (stereo not drawn) [Example 109, 1-(4-{5-[(3-methylpiperidin-1-yl)methyl]-1,3-oxazol-2-yl}benzyl)-1H-benzimidazole], the Ki is above 100 nM.
In turn, `CC1(C)CC2CC(C)(CN2Cc2cnc(-c3ccc(Cn4cnc5ccccc54)cc3)o2)C1` (stereo not drawn) [Example 110, 1-(4-{5-[(1,3,3-trimethyl-6-azabicyclo[3.2.1]oct-6-yl)methyl]-1,3-oxazol-2-yl}benzyl)-1H-benzimidazole] yielded an inhibition constant Ki above 100 nM.
Regarding `c1ccc2c(c1)ncn2Cc1ccc(-c2ncc(CN3CCCCCC3)o2)cc1` [Example 111, 1-{4-[5-(azepan-1-ylmethyl)-1,3-oxazol-2-yl]benzyl}-1H-benzimidazole], the inhibition constant Ki is above 100 nM.
Take `CCN(C)Cc1cnc(-c2ccc(Cn3cnc4ccccc43)cc2)o1` [Example 112]: the Ki is above 100 nM.
In the case of `CCN(CC)Cc1cnc(-c2ccc(Cn3cnc4ccccc43)cc2)o1` [Example 113, N-({2-[4-(1H-benzimidazol-1-ylmethyl)phenyl]-1,3-oxazol-5-yl}methyl)-N-ethylethanamine] it was above 100 nM; in that of `FC(F)(F)c1nc2ccccc2n1Cc1ccc(-c2nc(CN3CCCC3)co2)cc1` [Example 114], at most 10 nM; in that of `c1ccc(-c2nc3ccccc3n2Cc2ccc(-c3nc(CN4CCCC4)co3)cc2)cc1` [Example 115, 2-phenyl-1-{4-[4-(pyrrolidin-1-ylmethyl)-1,3-oxazol-2-yl]benzyl}-1H-benzimidazole], at most 10 nM.
To `C[C@@H]1CCCN1Cc1coc(-c2ccc(Cn3c(C(F)(F)F)nc4ccccc43)cc2)n1` [Example 116, 1-[4-(4-{[(2R)-2-methylpyrrolidin-1-yl]methyl}-1,3-oxazol-2-yl)benzyl]-2-(trifluoromethyl)-1H-benzimidazole] belongs 10.1 to 25 nM; to `C[C@H]1CCCN1Cc1coc(-c2ccc(Cn3c(-c4ccccc4)nc4ccccc43)cc2)n1` [Example 117, 1-[4-(4-{[(2S)-2-methylpyrrolidin-1-yl]methyl}-1,3-oxazol-2-yl)benzyl]-2-phenyl-1H-benzimidazole], at most 10 nM.
Take `C[C@H]1CCCN1Cc1coc(-c2ccc(Cn3c(C(F)(F)F)nc4ccccc43)cc2)n1` [Example 118, 1-[4-(4-{[(2S)-2-methylpyrrolidin-1-yl]methyl}-1,3-oxazol-2-yl)benzyl]-2-(trifluoromethyl)-1H-benzimidazole]: the Ki fell in the range of 10.1 to 25 nM.
